Data reported in US10100335B2, “Microbial production of branched medium chain alcohols, such as 4-methylpentanol” (Massachusetts Institute of Technology, priority 2013, dated 2018).
Values after ≈ are worked out from the molar mass of the structure shown.

Tests used:
MG1655(DE3) endA recA = assay: Toxicity of exogenously added alcohols on exponential growth rate; format: cell-based, E. coli; details: for reduction in growth rate: 10 mM alcohol in LB medium with 1.2% glucose
Procedure: The exponential growth rate was unchanged by 4-methyl-1-pentanol concentrations exceeding those observed in final titers (193±23 mg/L) for the high producing Strain M1Fj(IA)2I34. The highest 4-methyl-1-pentanol concentration (10 mM, 1022 mg/L) did lead to a reduction in growth rate of 40%. […] If higher titers of 4-methyl-1-pentanol are achieved, in situ gas stripping or simple phase separation could potentially be used to extract 4-methyl-1-pentanol from the culture medium (Lee 1994).
Duplicate 3 ml cultures in LB+1.2% glucose+alcohol were inoculated to an initial OD600 of 0.1. Cultures were contained in the same 50 ml screw-cap tubes used in production experiments. […] Growth was monitored by optical density and the growth rate was calculated from a linear regression of the natural log of the OD600 values for the 1.5, 2, and 2.5 hour post-inoculation time points.

[1] = cited from earlier work
[2] = molecular target: T1, CarNi (Nocardia iowensis carboxylic acid reductase) (Nocardia iowensis, UniProt Q6RKB1); format: biochemical; details: for CarNi activity on aliphatic acid substrate: 13 straight and branched acids from C2-C8; for observed CarNi activity relative to activity on 4-methyl-valerate: in vitro, his-purified CarNi, 50 mM acid substrate
T1 construct: made in house; host or cells: E. coli BL21 Star (DE3) harboring pET/His-Car-RBS2-Sfp
T1 sequence (Q6RKB1 whole entry): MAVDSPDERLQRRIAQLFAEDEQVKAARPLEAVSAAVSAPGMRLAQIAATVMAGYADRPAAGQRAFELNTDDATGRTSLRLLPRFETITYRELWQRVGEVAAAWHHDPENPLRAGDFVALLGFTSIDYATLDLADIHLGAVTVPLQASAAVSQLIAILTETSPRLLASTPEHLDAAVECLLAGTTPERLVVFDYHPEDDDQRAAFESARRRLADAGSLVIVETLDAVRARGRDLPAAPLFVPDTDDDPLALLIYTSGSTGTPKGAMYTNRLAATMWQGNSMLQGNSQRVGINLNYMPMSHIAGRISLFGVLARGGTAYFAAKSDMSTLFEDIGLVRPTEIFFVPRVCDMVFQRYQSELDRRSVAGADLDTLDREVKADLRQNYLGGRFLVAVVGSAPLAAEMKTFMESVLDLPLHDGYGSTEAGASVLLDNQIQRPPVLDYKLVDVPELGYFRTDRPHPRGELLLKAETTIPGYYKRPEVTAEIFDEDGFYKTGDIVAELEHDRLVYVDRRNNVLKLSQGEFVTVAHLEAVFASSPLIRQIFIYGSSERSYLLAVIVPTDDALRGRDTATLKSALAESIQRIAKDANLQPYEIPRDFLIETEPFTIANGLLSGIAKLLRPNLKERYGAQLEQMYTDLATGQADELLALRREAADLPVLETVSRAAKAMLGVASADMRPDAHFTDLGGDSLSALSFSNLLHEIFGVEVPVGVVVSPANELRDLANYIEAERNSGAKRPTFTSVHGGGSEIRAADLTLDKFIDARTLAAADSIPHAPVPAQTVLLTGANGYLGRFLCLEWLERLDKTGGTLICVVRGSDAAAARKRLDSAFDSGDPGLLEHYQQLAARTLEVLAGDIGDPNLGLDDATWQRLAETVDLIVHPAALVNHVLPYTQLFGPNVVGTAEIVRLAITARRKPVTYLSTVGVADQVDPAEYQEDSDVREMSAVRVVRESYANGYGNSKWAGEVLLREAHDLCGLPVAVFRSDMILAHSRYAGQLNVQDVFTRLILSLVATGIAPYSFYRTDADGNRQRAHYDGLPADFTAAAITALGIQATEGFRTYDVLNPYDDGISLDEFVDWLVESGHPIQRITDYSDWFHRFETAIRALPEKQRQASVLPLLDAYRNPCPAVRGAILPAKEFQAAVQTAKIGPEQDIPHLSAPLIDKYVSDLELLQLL
Procedure: Strain M4 expressing car-sfp-ADH6 was fed five different acids at 10 mM initial concentration. Selectivity was determined by measuring normalized titers 5 hours post induction of gene expression. […] Initial rates were measured by monitoring NADPH consumption by measuring absorption at 340 nm.
Assays were devised to confirm activity on desired substrates in vitro and in vivo. In the first, N-terminal his-tagged CarNi was purified and assayed by UV absorption of NADPH with 13 straight and branched acids from C2-C8. […] A complementary in vivo assay was designed to examine the effectiveness of the Module 4 pairing. Butyrate, valerate. 3-methyl-valerate, 4-methyl-valerate, and hexanoate were fed to E. coli cultures expressing CarNi/ADH6Sc and conversion was monitored by sampling the culture media and liquid chromatography (LC).
Relative Activity Assay for Purified his-Car: An overnight culture of BL21 Star (DE3) (Invitrogen) harboring pET/His-Car-RBS2-Sfp was used as 10% (v/v) inoculum in 2 L of LB Broth. The culture was incubated at 30° C. and 250 rpm, and expression was induced using a final concentration of 1 mM IPTG at OD 0.6. Cells were harvested after 20 hours using centrifugation and resuspended in a buffer containing 50 mM Tris-HCl pH 8.0, 300 mM NaCl, and 10% glycerol. Cells were subsequently lysed using sonication. The supernatant was collected and applied to a column containing Ni-NTA resin (Qiagen). Affinity chromatography was performed using step-wise increasing concentrations of imidazole. Fractions containing purified His6-Car were dialyzed overnight at 4° C. into 50 mM Tris-HCl pH 7.5, 50 mM NaCl, 1 mM DTT, and 10% glycerol. Dialyzed enzyme was then flash frozen using liquid nitrogen and stored at −80° C. The activity of His-Car on various substrates was determined by changes in absorbance at 340 nm for up to 5 minutes in 96-well microplates using a plate reader (Tecan Infinite F200 Pro). Reactions were prepared as follows: 100 mM Tris-HCl pH 7.5, 10 mM MgCl2, 0.6 mM NADPH, 1 mM ATP, 224 nM His-Car, and 50 mM pH neutralized acid substrate. Changes in absorbance at 340 nm were detected using a filter. All substrates were assayed in triplicate. For KM and Vmax determinations, substrates were assayed at 5 different concentrations.

SMILES | reduction in growth rate (MG1655(DE3) endA recA) [%] | effect on exponential growth rate (MG1655(DE3) endA recA; concentrations up to 5 mM) | CarNi activity on aliphatic acid substrate [2] | observed CarNi activity relative to activity on 4-methyl-valerate [2] [%] | also measured
CC(C)CCCO [4-methyl-1-pentanol] | 40 | did not inhibit | – | – | effect on exponential growth rate (MG1655(DE3) endA recA; concentrations exceeding those observed in final titers (193±23 mg/L)): unchanged; solubility in water [1]: 7400 µg/mL (≈ 72.4 mM)
CCC(C)CCC(=O)O (stereo not drawn) [4-methyl-hexanoate] | – | – | highest activity | – | –
CC(=O)O [acetate] | – | – | reduced activity | – | –
CCCC(=O)O [butyrate] | – | – | – | 56 | –
CC(C)CO [isobutanol] | 10 | did not inhibit | – | – | –
CC(C)C(=O)O [isobutyrate] | – | – | reduced activity | 25 | Km ([2]; purified His-CarNi, initial rates by NADPH consumption at 340 nm): 78 ± 9 mM
